# Test system: NCI-H1341 complex spheroids, percent test/control
# Test: Anticancer human tumor NCI-H1341 cell line growth inhibition [AhR];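 note: spheroids exposed to agents for seven days before readout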
# Conditions: for IC50: curve of first compound; for viability, T/C: stronger effect = lower value
# Method in brief: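 Spheroids combined tumor cells with HUVEC endothelial cells and human MSCs as stroma. AhR antagonists were paired with standard or investigational drugs, each dosed in half-log steps down from near clinical Cmax, or from 10 microM where Cmax was unknown.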
# [1] = second compound 0.1 µM, first compound 0.000949 µM
# [2] = second compound 0.1 µM, first compound 0.003 µM
# [3] = second compound 0.1 µM, first compound 0.00949 µM
# [4] = second compound 0.1 µM, first compound 0.03 µM
# [5] = second compound 0.1 µM, first compound 0.0949 µM
# [6] = second compound 0.1 µM, first compound 0.3 µM
# [7] = second compound 0.316 µM, first compound 0.000949 µM
# [8] = second compound 0.316 µM, first compound 0.003 µM
# [9] = second compound 0.316 µM, first compound 0.00949 µM
# [10] = second compound 0.316 µM, first compound 0.03 µM
# [11] = second compound 0.316 µM, first compound 0.0949 µM
# [12] = second compound 0.316 µM, first compound 0.3 µM
# [13] = second compound 1 µM, first compound 0.000949 µM
# [14] = second compound 1 µM, first compound 0.003 µM
# [15] = second compound 1 µM, first compound 0.00949 µM
# [16] = second compound 1 µM, first compound 0.03 µM
# [17] = second compound 1 µM, first compound 0.0949 µM
# [18] = second compound 1 µM, first compound 0.3 µM
# [19] = second compound 3.16 µM, first compound 0.000949 µM
# [20] = second compound 3.16 µM, first compound 0.003 µM
# [21] = second compound 3.16 µM, first compound 0.00949 µM
# [22] = second compound 3.16 µM, first compound 0.03 µM
# [23] = second compound 3.16 µM, first compound 0.0949 µM
# [24] = second compound 3.16 µM, first compound 0.3 µM
# [25] = second compound 10 µM, first compound 0.000949 µM
# [26] = second compound 10 µM, first compound 0.003 µM
# [27] = second compound 10 µM, first compound 0.00949 µM
# [28] = second compound 10 µM, first compound 0.03 µM
# [29] = second compound 10 µM, first compound 0.0949 µM
# [30] = second compound 10 µM, first compound 0.3 µM
# [31] = second compound 0.1 µM, first compound 0.0316 µM
# [32] = second compound 0.1 µM, first compound 0.1 µM
# [33] = second compound 0.1 µM, first compound 0.316 µM
# [34] = second compound 0.1 µM, first compound 1 µM
# [35] = second compound 0.1 µM, first compound 3.16 µM
# [36] = second compound 0.1 µM, first compound 10 µM
# [37] = second compound 0.316 µM, first compound 0.0316 µM
# [38] = second compound 0.316 µM, first compound 0.1 µM
# [39] = second compound 0.316 µM, first compound 0.316 µM
# [40] = second compound 0.316 µM, first compound 1 µM
# [41] = second compound 0.316 µM, first compound 3.16 µM
# [42] = second compound 0.316 µM, first compound 10 µM
# [43] = second compound 1 µM, first compound 0.0316 µM
# [44] = second compound 1 µM, first compound 0.1 µM
# [45] = second compound 1 µM, first compound 0.316 µM
# [46] = second compound 1 µM, first compound 1 µM
# [47] = second compound 1 µM, first compound 3.16 µM
# [48] = second compound 1 µM, first compound 10 µM
# [49] = second compound 3.16 µM, first compound 0.0316 µM
# [50] = second compound 3.16 µM, first compound 0.1 µM
# [51] = second compound 3.16 µM, first compound 0.316 µM
# [52] = second compound 3.16 µM, first compound 1 µM
# [53] = second compound 3.16 µM, first compound 3.16 µM
# [54] = second compound 3.16 µM, first compound 10 µM
# [55] = second compound 10 µM, first compound 0.0316 µM
# [56] = second compound 10 µM, first compound 0.1 µM
# [57] = second compound 10 µM, first compound 0.316 µM
# [58] = second compound 10 µM, first compound 1 µM
# [59] = second compound 10 µM, first compound 3.16 µM
# [60] = second compound 10 µM, first compound 10 µM
structure (smiles),measurement,setting,value
CC(C)CC(NC(=O)C(Cc1ccccc1)NC(=O)c1cnccn1)B(O)O (stereo not given) + Cc1ccccc1N=Nc1ccc(NC(=O)c2ccnn2C)c(C)c1,IC50,second compound 0.1 µM,5.09 nM
same,IC50,second compound 0.316 µM,5.12 nM
same,IC50,second compound 1 µM,4.96 nM
same,IC50,second compound 3.16 µM,4.3 nM
same,IC50,second compound 10 µM,3.45 nM
same,"viability, T/C",[1],116%
same,"viability, T/C",[2],90.2%
same,"viability, T/C",[3],2.67%
same,"viability, T/C",[4],0.15%
same,"viability, T/C",[5],0.06%
same,"viability, T/C",[6],0.19%
same,"viability, T/C",[7],92.6%
same,"viability, T/C",[8],91.1%
same,"viability, T/C",[9],2.6%
same,"viability, T/C",[10],0.07%
same,"viability, T/C",[11],0.07%
same,"viability, T/C",[12],0.15%
same,"viability, T/C",[13],83%
same,"viability, T/C",[14],89.7%
same,"viability, T/C",[15],3.18%
same,"viability, T/C",[16],0.12%
same,"viability, T/C",[17],0.08%
same,"viability, T/C",[18],0.18%
same,"viability, T/C",[19],85%
same,"viability, T/C",[20],71.6%
same,"viability, T/C",[21],2.5%
same,"viability, T/C",[22],0.06%
same,"viability, T/C",[23],0.09%
same,"viability, T/C",[24],0.2%
same,"viability, T/C",[25],50.5%
same,"viability, T/C",[26],62.5%
same,"viability, T/C",[27],2.63%
same,"viability, T/C",[28],0.39%
same,"viability, T/C",[29],0.18%
same,"viability, T/C",[30],0.31%
CCc1c2c(nc3ccc(O)cc13)-c1cc3c(c(=O)n1C2)COC(=O)[C@]3(O)CC + Cc1ccccc1N=Nc1ccc(NC(=O)c2ccnn2C)c(C)c1,IC50,second compound 0.1 µM,13.1 nM
same,IC50,second compound 0.316 µM,25.3 nM
same,IC50,second compound 1 µM,17.2 nM
same,IC50,second compound 3.16 µM,11.7 nM
same,IC50,second compound 10 µM,9.79 nM
same,"viability, T/C",[1],107%
same,"viability, T/C",[2],67.5%
same,"viability, T/C",[3],53.4%
same,"viability, T/C",[4],44.3%
same,"viability, T/C",[5],37%
same,"viability, T/C",[6],15.3%
same,"viability, T/C",[7],92.9%
same,"viability, T/C",[8],84%
same,"viability, T/C",[9],53.2%
same,"viability, T/C",[10],49.5%
same,"viability, T/C",[11],40.1%
same,"viability, T/C",[12],16.5%
same,"viability, T/C",[13],85.5%
same,"viability, T/C",[14],74.9%
same,"viability, T/C",[15],50.3%
same,"viability, T/C",[16],43.5%
same,"viability, T/C",[17],35.5%
same,"viability, T/C",[18],13.5%
same,"viability, T/C",[19],75.7%
same,"viability, T/C",[20],58.2%
same,"viability, T/C",[21],51%
same,"viability, T/C",[22],43.5%
same,"viability, T/C",[23],29.7%
same,"viability, T/C",[24],12.1%
same,"viability, T/C",[25],54.3%
same,"viability, T/C",[26],48.9%
same,"viability, T/C",[27],48.4%
same,"viability, T/C",[28],44.8%
same,"viability, T/C",[29],22.6%
same,"viability, T/C",[30],7.81%
Nc1ccccc1NC(=O)c1ccc(CNC(=O)OCc2cccnc2)cc1 + Cc1ccccc1N=Nc1ccc(NC(=O)c2ccnn2C)c(C)c1,IC50,second compound 0.1 µM,582 nM
same,IC50,second compound 0.316 µM,604 nM
same,IC50,second compound 1 µM,596 nM
same,IC50,second compound 3.16 µM,647 nM
same,IC50,second compound 10 µM,380 nM
same,"viability, T/C",[31],91.8%
same,"viability, T/C",[32],84.5%
same,"viability, T/C",[33],65.2%
same,"viability, T/C",[34],37.4%
same,"viability, T/C",[35],9.11%
same,"viability, T/C",[36],0.66%
same,"viability, T/C",[37],89.9%
same,"viability, T/C",[38],88.7%
same,"viability, T/C",[39],70.3%
same,"viability, T/C",[40],33.6%
same,"viability, T/C",[41],9.54%
same,"viability, T/C",[42],1.08%
same,"viability, T/C",[43],120%
same,"viability, T/C",[44],98.6%
same,"viability, T/C",[45],76.3%
same,"viability, T/C",[46],30.1%
same,"viability, T/C",[47],7.04%
same,"viability, T/C",[48],0.78%
same,"viability, T/C",[49],85.9%
same,"viability, T/C",[50],86.7%
same,"viability, T/C",[51],62%
same,"viability, T/C",[52],43.1%
same,"viability, T/C",[53],12.5%
same,"viability, T/C",[54],0.88%
same,"viability, T/C",[55],49.7%
same,"viability, T/C",[56],53.3%
same,"viability, T/C",[57],58.7%
same,"viability, T/C",[58],37.8%
same,"viability, T/C",[59],18.8%
same,"viability, T/C",[60],3.01%
O=C(c1cc(Cc2n[nH]c(=O)c3ccccc23)ccc1F)N1CCN(C(=O)C2CC2)CC1 + Cc1ccccc1N=Nc1ccc(NC(=O)c2ccnn2C)c(C)c1,IC50,second compound 0.1 µM,> 10000 nM
same,IC50,second compound 0.316 µM,> 10000 nM
same,IC50,second compound 1 µM,> 10000 nM
same,IC50,second compound 3.16 µM,> 10000 nM
same,IC50,second compound 10 µM,> 10000 nM
same,"viability, T/C",[31],94%
same,"viability, T/C",[32],83.4%
same,"viability, T/C",[33],93.9%
same,"viability, T/C",[34],86.4%
same,"viability, T/C",[35],104%
same,"viability, T/C",[36],69.4%
same,"viability, T/C",[37],87.4%
same,"viability, T/C",[38],84.5%
same,"viability, T/C",[39],97.4%
same,"viability, T/C",[40],71.2%
same,"viability, T/C",[41],72.8%
same,"viability, T/C",[42],59.1%
same,"viability, T/C",[43],94.2%
same,"viability, T/C",[44],97.8%
same,"viability, T/C",[45],68.8%
same,"viability, T/C",[46],78.3%
same,"viability, T/C",[47],81.2%
same,"viability, T/C",[48],69.1%
same,"viability, T/C",[49],67.6%
same,"viability, T/C",[50],72.1%
same,"viability, T/C",[51],65.7%
same,"viability, T/C",[52],74%
same,"viability, T/C",[53],60.9%
same,"viability, T/C",[54],57.3%
same,"viability, T/C",[55],46.2%
same,"viability, T/C",[56],50.3%
same,"viability, T/C",[57],56.3%
same,"viability, T/C",[58],58.6%
same,"viability, T/C",[59],51.2%
same,"viability, T/C",[60],47.5%

# — PubChem BioAssay AID1919014 (Molecular Pharmacology Branch, DTP, NCI, 2023)
